From patent US8153385B2, “Target protein and target gene in drug designing and screening method” (Reverse Proteomics Research Institute Co., Ltd., priority 2004, dated 2012)

Biological target: T1, FLJ13397 clone-derived protein (CARP) (Homo sapiens, UniProt Q9H8M7)
T1 construct: A human full-length cDNA clone was expressed as a protein with an N-terminal His tag; His tag (pDEST17 Gateway vector) (N); made in house; host or cells: Escherichia coli BL21star(DE3)pLysS
T1 sequence (Q9H8M7 1-445): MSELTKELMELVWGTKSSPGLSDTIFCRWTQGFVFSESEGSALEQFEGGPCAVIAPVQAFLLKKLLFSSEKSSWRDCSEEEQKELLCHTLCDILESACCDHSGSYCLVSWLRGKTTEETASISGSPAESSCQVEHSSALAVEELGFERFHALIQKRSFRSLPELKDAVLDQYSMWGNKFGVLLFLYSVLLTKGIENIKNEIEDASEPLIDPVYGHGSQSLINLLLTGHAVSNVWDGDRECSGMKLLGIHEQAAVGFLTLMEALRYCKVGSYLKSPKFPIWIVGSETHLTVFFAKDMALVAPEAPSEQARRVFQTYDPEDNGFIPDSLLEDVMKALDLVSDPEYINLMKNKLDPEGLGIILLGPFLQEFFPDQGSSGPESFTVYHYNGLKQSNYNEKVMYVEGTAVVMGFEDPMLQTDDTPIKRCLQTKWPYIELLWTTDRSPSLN
Assay: SEC/MS (size exclusion chromatography / mass analysis) interaction analysis between FLJ13397 clone-derived protein and compounds
Format: binding
Protocol: BP-reaction was performed on human full-length cDNA clone and the cloning vector Gateway pDONR201 by the PCR cloning method using the Invitrogen Gateway system to yield an entry clone. LR-reaction was performed on this entry clone with the destination vector pDEST17 (Gateway System) and LR Clonase at 25° C. for 60 minutes to yield an expression plasmid. Escherichia coli competent cell BL21star(DE3)pLysS were transformed with this expression plasmid, a clone incorporating the expression vector was selected, and a frozen stock was prepared. The transformant was inoculated into LB medium and precultured, after which it was transferred into SB medium and cultured to induce the expression by IPTG, and the cells were stored frozen.
A human full-length cDNA clone was expressed as a protein with an N-terminal His tag. This clone was purified using BioRobot 8000 (Qiagen) or ACTA Crystal (Amersham). […] In the purification with ACTA Crystal, affinity purification using a HisTrap HP column was followed by gel filtration purification using the Gel Filtration Column HiLoad 16/60 or a 10/30 Superdex 75 prep grade column. The purified fraction was used for interaction analysis after being subjected to SDS-PAGE to verify the estimated molecular weight and purity.
To analyze the interactions between commonly used drugs and proteins expressed from human full-length cDNA clones while keeping both the proteins and the compounds in non-modified, non-immobilized state, size exclusion chromatography (SEC) and mass analysis were used in combination (FIGS. 1 and 2). The specific procedures are shown below.
The compound-protein mixture prepared in step 1 was subjected to chromatography using an SEC column, the compound and the protein were separated by SEC, and the bound compound or compound that interacted with the protein in the protein fraction was analyzed using a mass analyzer.
Protein concentrations were measured using BCA Protein Assay (PIERCE), in consideration of the purity calculated by SDS-PAGE.
Mass analysis was performed using LCQ DECA XP (Thermoelectron) or Q-TOFmicro (Micromass), equipped with an ESI probe. The LC pump used was Agilent 1100 (Yokogawa Analytical Systems), and the autosampler used was HTC-PAL (CTC Analytics) equipped with a cooling stacker.
In the SEC method using a 384-well spin column, Unifilter 100 (Whatman), packed with 10 μL (dry volume) of Bio-Gel P6 (BIO-RAD) and swollen with milliQ water, was used as the SEC column. […] The SEC spin column was mounted on an acetonitrile-aliquoted 384-well U-bottom plate and centrifuged; the SEC spin column filtrate, which is a protein fraction, was retrieved in 50% acetonitrile. The protein precipitate produced by the acetonitrile was removed via centrifugation and filtration for protein removal; the resulting filtrate was concentrated by centrifugation and re-dissolved in 10 μL of 50% methanol to obtain a mass analysis sample. The mobile phase supplied to the mass analyzer was 0.1% formic acid/50% methanol solution in the positive ion mode, and 0.1% ammonia/50% methanol solution in the negative ion mode; these mobile phases were used at a flow rate of 40 μL/min. 2-μL of mass analysis samples were injected using an autosampler at 2-Minute intervals; the mass spectral intensity of the compound was measured to obtain the spectral intensity of the pharmaceutical compound contained in the SEC spin column filtrate (protein fraction eluted from SEC).

[1] = compound 1 μM, protein 0 μM (protein-free reference)
[2] = compound 1 μM, protein 23.75 μM
[3] = compound 10 μM, protein 0 μM (protein-free reference)
[4] = compound 10 μM, protein 23.75 μM
[5] = compound 10 μM, protein 47.5 μM
[6] = compound 100 μM, protein 0 μM (protein-free reference)
[7] = compound 100 μM, protein 23.75 μM
[8] = compound 100 μM, protein 47.5 μM
[9] = compound 250 μM, protein 0 μM (protein-free reference)
[10] = compound 250 μM, protein 23.75 μM
[11] = compound 250 μM, protein 47.5 μM

SMILES: CCCOc1ccc2nc(NC(=O)OC)[nH]c2c1 [Oxibendazole]
- spectrum intensity of the extracted mass range (compound in SEC spin column filtrate) [1]: 570160
- spectrum intensity of the extracted mass range (compound in SEC spin column filtrate) [2]: 595458
- spectrum intensity of the extracted mass range (compound in SEC spin column filtrate) (compound 1 μM, protein 47.5 μM): 529117
- spectrum intensity of the extracted mass range (compound in SEC spin column filtrate) [3]: 525337
- spectrum intensity of the extracted mass range (compound in SEC spin column filtrate) [4]: 3533115
- spectrum intensity of the extracted mass range (compound in SEC spin column filtrate) [5]: 9671167
- spectrum intensity of the extracted mass range (compound in SEC spin column filtrate) [6]: 1292692
- spectrum intensity of the extracted mass range (compound in SEC spin column filtrate) [7]: 7303166
- spectrum intensity of the extracted mass range (compound in SEC spin column filtrate) [8]: 8921904
- spectrum intensity of the extracted mass range (compound in SEC spin column filtrate) [9]: 2449247
- spectrum intensity of the extracted mass range (compound in SEC spin column filtrate) [10]: 20401030
- spectrum intensity of the extracted mass range (compound in SEC spin column filtrate) [11]: 13559202

SMILES: CC(C)(C)c1ccc(C(O)CCCN2CCC(C(O)(c3ccccc3)c3ccccc3)CC2)cc1 (stereo not shown) [Terfenadine]
- spectrum intensity of the extracted mass range (compound in SEC spin column filtrate) [1]: 1817431
- spectrum intensity of the extracted mass range (compound in SEC spin column filtrate) [2]: 1889743
- spectrum intensity of the extracted mass range (compound in SEC spin column filtrate) (compound 1 μM, protein 47.5 μM): 1281933
- spectrum intensity of the extracted mass range (compound in SEC spin column filtrate) [3]: 2641416
- spectrum intensity of the extracted mass range (compound in SEC spin column filtrate) [4]: 9434699
- spectrum intensity of the extracted mass range (compound in SEC spin column filtrate) [5]: 8393491
- spectrum intensity of the extracted mass range (compound in SEC spin column filtrate) [6]: 241452949
- spectrum intensity of the extracted mass range (compound in SEC spin column filtrate) [7]: 175843248
- spectrum intensity of the extracted mass range (compound in SEC spin column filtrate) [8]: 549040113
- spectrum intensity of the extracted mass range (compound in SEC spin column filtrate) [9]: 644365611
- spectrum intensity of the extracted mass range (compound in SEC spin column filtrate) [10]: 1389061661
- spectrum intensity of the extracted mass range (compound in SEC spin column filtrate) [11]: 1700398168
- interaction with the FLJ13397-expressed protein (judgement) (judged from increase of spectrum intensity with doses of compound and protein): concentration-dependent interaction

SMILES: c1ccc2[nH]c(-c3cscn3)nc2c1 [Thiabendazole]
- spectrum intensity of the extracted mass range (compound in SEC spin column filtrate) [1]: 61442947
- spectrum intensity of the extracted mass range (compound in SEC spin column filtrate) [2]: 42216896
- spectrum intensity of the extracted mass range (compound in SEC spin column filtrate) (compound 1 μM, protein 47.5 μM): 47595391
- spectrum intensity of the extracted mass range (compound in SEC spin column filtrate) [3]: 21903023
- spectrum intensity of the extracted mass range (compound in SEC spin column filtrate) [4]: 45510612
- spectrum intensity of the extracted mass range (compound in SEC spin column filtrate) [5]: 41434122
- spectrum intensity of the extracted mass range (compound in SEC spin column filtrate) [6]: 60344905
- spectrum intensity of the extracted mass range (compound in SEC spin column filtrate) [7]: 64811390
- spectrum intensity of the extracted mass range (compound in SEC spin column filtrate) [8]: 63585895
- spectrum intensity of the extracted mass range (compound in SEC spin column filtrate) [9]: 40530147
- spectrum intensity of the extracted mass range (compound in SEC spin column filtrate) [10]: 93902905
- spectrum intensity of the extracted mass range (compound in SEC spin column filtrate) [11]: 125101370

SMILES: OC(c1ccccc1)(c1ccccc1)C1CCNCC1 [α,α-Diphenyl-4-piperidinomethanol]
- spectrum intensity of the extracted mass range (compound in SEC spin column filtrate) [1]: 1354498
- spectrum intensity of the extracted mass range (compound in SEC spin column filtrate) [2]: 1217276
- spectrum intensity of the extracted mass range (compound in SEC spin column filtrate) (compound 1 μM, protein 47.5 μM): 1961004
- spectrum intensity of the extracted mass range (compound in SEC spin column filtrate) [3]: 14109120
- spectrum intensity of the extracted mass range (compound in SEC spin column filtrate) [4]: 12131847
- spectrum intensity of the extracted mass range (compound in SEC spin column filtrate) [5]: 15743409
- spectrum intensity of the extracted mass range (compound in SEC spin column filtrate) [6]: 106849236
- spectrum intensity of the extracted mass range (compound in SEC spin column filtrate) [7]: 219345185
- spectrum intensity of the extracted mass range (compound in SEC spin column filtrate) [8]: 287013305
- spectrum intensity of the extracted mass range (compound in SEC spin column filtrate) [9]: 400374746
- spectrum intensity of the extracted mass range (compound in SEC spin column filtrate) [10]: 620399620
- spectrum intensity of the extracted mass range (compound in SEC spin column filtrate) [11]: 1037919
